{
  "source": "patent US20210022339A1",
  "about": "“USE OF DELAYED DORMANT APPLICATIONS OF HOMOBRASSINOLIDE ON GRAPES TO ENHANCE BUD BREAK” (priority 2019, published 2021)",
  "key": {"Thompson Seedless Grapes [1]": {"tested_on": "Thompson Seedless Grapes", "experiment": "Percentage bud break on renewal spurs, vineyard trial", "format": "in vivo, Vitis", "conditions": "by 41 DAA", "text": "(§1) A portion of an established commercial vineyard was used for the study. The HBR (FIG. 1) treatments were replicated down a single row and arranged in sets of 3 vines per plot. Plots were flagged with colored ribbon to identify the treatments and there were 4 replicates each. Spray applications were made when the vines were still dormant on Day 0 (Feb. 12, 2019) or during the delayed dormant period, when buds were swollen or at eraser stage, on Day 24 (Mar. 8, 2019)). […] Crop injury was rated using a scale of 0-10, where 0=no injury and 10=100% of tree injured. Percentage bud break was evaluated by counting numbers of shoots from 30 nodes on fruiting canes from trunk to trunk and 5 renewal spurs were chosen non-systematically on Day 34 (Mar. 18, 2019) and Day 41 (Mar. 25, 2019).\nHowever, the results were statistically significant between the rest breaking treatments as a group compared to the untreated check at both evaluation intervals. […] It appeared that spur bud break had peaked by 34 DAA because by 41 DAA, percentages were mostly the same. Only the untreated check continued to break buds, which remained approximately 15% lower than the rest breaking treatments as a group."}, "Thompson Seedless Grapes [2]": {"tested_on": "Thompson Seedless Grapes", "conditions": "grapes and other fruit crops; cited from earlier work"}, "nearby crops": {"tested_on": "nearby crops", "conditions": "in vivo; cited from earlier work"}, "[3]": {"conditions": "label for 0.1% HBR; SDS from Alzchem; cited from earlier work"}, "Thompson Seedless Grapes [4]": {"tested_on": "Thompson Seedless Grapes", "experiment": "Percentage bud break on fruiting canes, vineyard trial", "format": "in vivo, Vitis", "conditions": "for bud break on fruiting canes, efficacy: compared to the untreated check", "text": "as §1\nStatistical differences were highly significant and variability in the data was low. Having waited until approximately 55 chill portions (a quantification of the aggregate low temperature exposure needed for a crop to break dormancy), the dormant sprays allowed both the Hydrogen Cyanamide (Dormex®) treated and untreated vines to accumulate the maximum chilling. […] Uniformity was enhanced by both Dormex® and 5 ppm ai HBR applied as a dormant spray. Variability was lowest in the untreated check by 41 DAA even though bud break had not reached 90%. It is not unusual for bud break to exceed 100% because secondary shoots were stimulated by the effects of overcoming apical dominance by both effective rest breaking and the accumulation of maximum chilling by untreated vines. FIGS. 6 and 7."}, "vines": {"tested_on": "vines", "conditions": "cited from earlier work"}, "laboratory animals": {"tested_on": "laboratory animals", "conditions": "cited from earlier work; for toxicity: in vivo"}, "Thompson Seedless Grapes [5]": {"tested_on": "Thompson Seedless Grapes", "experiment": "Fruit growth uniformity", "parameters": "species or system Vitis", "conditions": "in vivo"}, "Thompson Seedless Grapes [6]": {"tested_on": "Thompson Seedless Grapes", "experiment": "Number of shoots (overcoming apical dominance)", "format": "in vivo, Vitis", "text": "as §1"}, "Thompson Seedless Grapes [7]": {"tested_on": "Thompson Seedless Grapes", "experiment": "Crop injury / phytotoxicity observation", "parameters": "species or system Vitis", "conditions": "in vivo", "text": "as §1"}},
  "note": "Entries after “also recorded” stand apart in the source; their conditions may differ. Read-outs that look alike come from different tables or passages of the source.",
  "data": [
    {"smiles": "N#CN", "note": "[Dormex, Hydrogen Cyanamide, reference compound]", "values": [
      {"measurement": "spur bud break", "setting": "Thompson Seedless Grapes [1]", "value": "< 100", "unit": "%"},
      {"measurement": "phytotoxicity", "setting": "Thompson Seedless Grapes [2]", "value": "can be phytotoxic"},
      {"measurement": "effect on nearby crops", "setting": "nearby crops", "value": "can damage nearby crops"},
      {"measurement": "biodegradability", "setting": "[3]", "value": "not readily biodegradable"},
      {"measurement": "bud break uniformity", "setting": "Thompson Seedless Grapes [4]; Dormex standard rate, dormant spray", "value": "enhanced"},
      {"measurement": "amount needed to approach the effect of HBR, times", "setting": "Thompson Seedless Grapes [4]; in vivo", "value": "approximately 20,000 times"},
      {"measurement": "lowering of the fruitability of vines", "setting": "vines; repeated use over the years", "value": "20-30 % per year"},
      {"measurement": "adverse effects in laboratory animals", "setting": "laboratory animals; California EPA Department of Pesticide Regulation study", "value": "causes adverse effects in the liver, thyroid, kidney, ovaries, and testes"},
      {"measurement": "toxicity", "setting": "laboratory animals", "value": "reported toxicity due to acute exposure; also recorded: can be acutely toxic when misused"}
    ]},
    {"smiles": "CC[C@@H](C(C)C)C(O)C(O)[C@@H](C)[C@H]1CC[C@H]2[C@@H]3COC(=O)[C@H]4C[C@H](O)[C@H](O)C[C@]4(C)[C@H]3CC[C@]12C", "note": "(stereo in doubt) [HBR, homobrassinolide]", "values": [
      {"measurement": "spur bud break, effects", "setting": "Thompson Seedless Grapes [1]; 2 ppm ai applied at bud swell", "value": "equivalent to the untreated check"},
      {"measurement": "fruit growth uniformity", "setting": "Thompson Seedless Grapes [5]", "value": "enhance fruit growth uniformity"},
      {"measurement": "shoots compared to control", "setting": "Thompson Seedless Grapes [6]; 1 ppm ai", "value": "increased shoots compared to control"},
      {"measurement": "shoots compared to control", "setting": "Thompson Seedless Grapes [6]; 2 ppm ai", "value": "increased shoots compared to control"},
      {"measurement": "shoots compared to control", "setting": "Thompson Seedless Grapes [6]; 5 ppm ai", "value": "increased shoots compared to control"},
      {"measurement": "shoots compared to the standard treatment", "setting": "Thompson Seedless Grapes [6]; both 1 ppm ai and 1 ppm ai treatments (so in the source)", "value": "comparable to the Hydrogen Cyanamide standard treatment"},
      {"measurement": "number of shoots", "setting": "Thompson Seedless Grapes [6]; either dormant or delayed dormant spray applications", "value": "increased number of shoots"},
      {"measurement": "effect on nearby crops", "setting": "nearby crops", "value": "no evidence that HBR has harmful effects on nearby crops"},
      {"measurement": "bud break on fruiting canes, efficacy", "setting": "Thompson Seedless Grapes [4]; 1 ppm ai applied at early bud swell", "value": "as effective as the standard rate of Dormex"},
      {"measurement": "bud break on fruiting canes, efficacy", "setting": "Thompson Seedless Grapes [4]; 2 ppm ai applied at early bud swell", "value": "as effective as the standard rate of Dormex"},
      {"measurement": "bud break uniformity", "setting": "Thompson Seedless Grapes [4]; 5 ppm ai applied as a dormant spray", "value": "enhanced"},
      {"measurement": "bud break on fruiting canes, effects", "setting": "Thompson Seedless Grapes [4]; 5 ppm applied delayed dormant, 34 DAA", "value": "statistically equivalent to the untreated check"},
      {"measurement": "active concentration range", "setting": "Thompson Seedless Grapes [4]; in vivo", "value": "nano molar to pico molar range"},
      {"measurement": "crop injury", "setting": "Thompson Seedless Grapes [7]", "value": "without crop injury"},
      {"measurement": "phytotoxicity", "setting": "Thompson Seedless Grapes [7]", "value": "non-phytotoxic"},
      {"measurement": "lowering of the fruitability of vines", "setting": "vines; in vivo", "value": "no such effect"},
      {"measurement": "toxicity", "setting": "laboratory animals", "value": "non-toxic mode of action"}
    ]}
  ]
}
